In PubChem BioAssay AID1963864 (Molecular Pharmacology Branch, DTP, NCI, 2024):

Tested on: KRAS PDC multicell spheroid viability
Assay: Anticancer human tumor 521955-158-R6-J3-PDC patient-derived pancreatic carcinoma cell line growth inhibition [KRAS2]
Conditions: for IC50: curve of first compound; for viability, T/C: stronger effect = lower value
Outline: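 KRAS-mutant tumor cells were grown as spheroids with HUVEC endothelial cells and human MSCs as stroma. Targeted agents were tested alone and with KRAS pathway inhibitors. Doses started at or near clinical Cmax, or 10 microM, descending half-log.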

[1] = second compound 0.0316 µM, first compound 0.0316 µM
[2] = second compound 0.0316 µM, first compound 0.1 µM
[3] = second compound 0.0316 µM, first compound 0.316 µM
[4] = second compound 0.0316 µM, first compound 1 µM
[5] = second compound 0.0316 µM, first compound 3.16 µM
[6] = second compound 0.0316 µM, first compound 10 µM
[7] = second compound 0.1 µM, first compound 0.0316 µM
[8] = second compound 0.1 µM, first compound 0.1 µM
[9] = second compound 0.1 µM, first compound 0.316 µM
[10] = second compound 0.1 µM, first compound 1 µM
[11] = second compound 0.1 µM, first compound 3.16 µM
[12] = second compound 0.1 µM, first compound 10 µM
[13] = second compound 0.316 µM, first compound 0.0316 µM
[14] = second compound 0.316 µM, first compound 0.1 µM
[15] = second compound 0.316 µM, first compound 0.316 µM
[16] = second compound 0.316 µM, first compound 1 µM
[17] = second compound 0.316 µM, first compound 3.16 µM
[18] = second compound 0.316 µM, first compound 10 µM
[19] = second compound 1 µM, first compound 0.0316 µM
[20] = second compound 1 µM, first compound 0.1 µM
[21] = second compound 1 µM, first compound 0.316 µM
[22] = second compound 1 µM, first compound 1 µM
[23] = second compound 1 µM, first compound 3.16 µM
[24] = second compound 1 µM, first compound 10 µM
[25] = second compound 3.16 µM, first compound 0.0316 µM
[26] = second compound 3.16 µM, first compound 0.1 µM
[27] = second compound 3.16 µM, first compound 0.316 µM
[28] = second compound 3.16 µM, first compound 1 µM
[29] = second compound 3.16 µM, first compound 3.16 µM
[30] = second compound 3.16 µM, first compound 10 µM
[31] = second compound 0.0316 µM, first compound 0.000316 µM
[32] = second compound 0.0316 µM, first compound 0.001 µM
[33] = second compound 0.0316 µM, first compound 0.00316 µM
[34] = second compound 0.0316 µM, first compound 0.01 µM
[35] = second compound 0.1 µM, first compound 0.000316 µM
[36] = second compound 0.1 µM, first compound 0.001 µM
[37] = second compound 0.1 µM, first compound 0.00316 µM
[38] = second compound 0.1 µM, first compound 0.01 µM
[39] = second compound 0.316 µM, first compound 0.000316 µM
[40] = second compound 0.316 µM, first compound 0.001 µM
[41] = second compound 0.316 µM, first compound 0.00316 µM
[42] = second compound 0.316 µM, first compound 0.01 µM
[43] = second compound 1 µM, first compound 0.000316 µM
[44] = second compound 1 µM, first compound 0.001 µM
[45] = second compound 1 µM, first compound 0.00316 µM
[46] = second compound 1 µM, first compound 0.01 µM
[47] = second compound 3.16 µM, first compound 0.000316 µM
[48] = second compound 3.16 µM, first compound 0.001 µM
[49] = second compound 3.16 µM, first compound 0.00316 µM
[50] = second compound 3.16 µM, first compound 0.01 µM
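Note: drug exposure lasted seven days.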
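Throughout, for viability, T/C: 100% = DMSO vehicle wells and lower means fewer viable cells.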

Row | SMILES | IC50 (second compound 0.0316 µM) [µM] | IC50 (second compound 0.1 µM) [µM] | IC50 (second compound 0.316 µM) [µM] | IC50 (second compound 1 µM) [µM] | IC50 (second compound 3.16 µM) [µM] | viability, T/C [1] [%] | viability, T/C [2] [%] | viability, T/C [3] [%] | viability, T/C [4] [%] | viability, T/C [7] [%] | viability, T/C [8] [%] | viability, T/C [9] [%] | viability, T/C [10] [%] | viability, T/C [13] [%] | viability, T/C [14] [%] | viability, T/C [15] [%] | viability, T/C [19] [%] | viability, T/C [20] [%] | viability, T/C [25] [%] | viability, T/C [26] [%] | also measured
1 | CC(C)NCC(C(=O)N1CCN(c2ncnc3c2C(C)CC3O)CC1)c1ccc(Cl)cc1 (stereo not given) + C=CC(=O)N1CCN(c2nc(OCC3CCCN3C)nc3c2CCN(c2cccc4cccc(C)c24)C3)CC1CC#N | > 10 | > 10 | > 10 | > 10 | < 0.0316 | 80.4 | 86.4 | 84.4 | 75.9 | 76.8 | 87.5 | 74.4 | 66.2 | 79.1 | 74.2 | 74.3 | 63.3 | 59 | 43.9 | 38 | viability, T/C [5]: 76.3%; viability, T/C [6]: 65%; viability, T/C [11]: 74.3%; viability, T/C [12]: 57.4%; viability, T/C [16]: 66.7%; viability, T/C [17]: 74.3%; viability, T/C [18]: 65.1%; viability, T/C [21]: 68.5%; viability, T/C [22]: 58.9%; viability, T/C [23]: 58.3%; viability, T/C [24]: 57.4%; viability, T/C [27]: 35.2%; viability, T/C [28]: 29.1%; viability, T/C [29]: 25.1%; viability, T/C [30]: 15.8%
2 | CC(C)n1nc(-c2ccc3oc(N)nc3c2)c2c(N)ncnc21 + C=CC(=O)N1CCN(c2nc(OCC3CCCN3C)nc3c2CCN(c2cccc4cccc(C)c24)C3)CC1CC#N | 0.0691 | 0.0679 | 0.0728 | 0.0871 | 0.00347 | 63 | 44.8 |  |  | 59.8 | 44.2 |  |  | 60.3 | 45.9 |  | 61.2 | 47 | 39.6 | 21.8 | viability, T/C [31]: 98%; viability, T/C [32]: 86.7%; viability, T/C [33]: 85.4%; viability, T/C [34]: 62.3%; viability, T/C [35]: 90.8%; viability, T/C [36]: 86.4%; viability, T/C [37]: 78.2%; viability, T/C [38]: 77.6%; viability, T/C [39]: 94.2%; viability, T/C [40]: 90.7%; viability, T/C [41]: 80.6%; viability, T/C [42]: 74.4%; viability, T/C [43]: 81.8%; viability, T/C [44]: 68.6%; viability, T/C [45]: 73.3%; viability, T/C [46]: 54.2%; viability, T/C [47]: 60.7%; viability, T/C [48]: 41.7%; viability, T/C [49]: 54.5%; viability, T/C [50]: 8.94%
3 | CC1(C)CCC(CN2CCN(c3ccc(C(=O)NS(=O)(=O)c4ccc(NCC5CCOCC5)c([N+](=O)[O-])c4)c(Oc4cnc5[nH]ccc5c4)c3)CC2)=C(c2ccc(Cl)cc2)C1 + C=CC(=O)N1CCN(c2nc(OCC3CCCN3C)nc3c2CCN(c2cccc4cccc(C)c24)C3)CC1CC#N | 3.86 | 4.48 | 2.68 | 1.92 | < 0.0316 | 104 | 97.5 | 95.6 | 92.7 | 93.5 | 97.3 | 90.6 | 91.9 | 92 | 95.8 | 101 | 82.4 | 78.2 | 45.2 | 48.4 | viability, T/C [5]: 57.3%; viability, T/C [6]: 14.4%; viability, T/C [11]: 64.2%; viability, T/C [12]: 17%; viability, T/C [16]: 97.2%; viability, T/C [17]: 42.1%; viability, T/C [18]: 15.4%; viability, T/C [21]: 80.1%; viability, T/C [22]: 76.9%; viability, T/C [23]: 29.4%; viability, T/C [24]: 6.62%; viability, T/C [27]: 24.2%; viability, T/C [28]: 8.37%; viability, T/C [29]: 0.18%; viability, T/C [30]: 0.23%
4 | CCN1CCN(Cc2ccc(Nc3ncc(F)c(-c4cc(F)c5nc(C)n(C(C)C)c5c4)n3)nc2)CC1 + C=CC(=O)N1CCN(c2nc(OCC3CCCN3C)nc3c2CCN(c2cccc4cccc(C)c24)C3)CC1CC#N | > 1 | > 1 | > 1 | > 1 | < 0.00316 | 76 | 76.1 | 82.8 | 95.1 | 81.4 | 85.7 | 82.9 | 98.8 | 76.5 | 77.2 | 87.8 | 71.3 | 65.2 | 25.9 | 17.1 | viability, T/C [33]: 94.4%; viability, T/C [34]: 81.9%; viability, T/C [37]: 88.3%; viability, T/C [38]: 93.6%; viability, T/C [41]: 86.1%; viability, T/C [42]: 86.4%; viability, T/C [16]: 91.9%; viability, T/C [45]: 72%; viability, T/C [46]: 84.5%; viability, T/C [21]: 79.9%; viability, T/C [22]: 103%; viability, T/C [49]: 24.9%; viability, T/C [50]: 26.4%; viability, T/C [27]: 15.3%; viability, T/C [28]: 4.09%
5 | CCNC(=O)CC1N=C(c2ccc(Cl)cc2)c2cc(OC)ccc2-n2c(C)nnc21 (stereo not given) + C=CC(=O)N1CCN(c2nc(OCC3CCCN3C)nc3c2CCN(c2cccc4cccc(C)c24)C3)CC1CC#N | > 10 | > 10 | > 10 | > 10 | 0.101 | 106 | 87.1 | 64.3 | 74.9 | 88.6 | 102 | 78.4 | 69.3 | 101 | 93.2 | 76 | 86.6 | 83.9 | 47 | 53.1 | viability, T/C [5]: 83.2%; viability, T/C [6]: 76.6%; viability, T/C [11]: 73.1%; viability, T/C [12]: 75.9%; viability, T/C [16]: 74.5%; viability, T/C [17]: 77.1%; viability, T/C [18]: 69.2%; viability, T/C [21]: 77.8%; viability, T/C [22]: 62.2%; viability, T/C [23]: 69.6%; viability, T/C [24]: 81%; viability, T/C [27]: 30.5%; viability, T/C [28]: 1.65%; viability, T/C [29]: 31%; viability, T/C [30]: 35.1%
6 | Cn1ncnc1[C@H]1c2n[nH]c(=O)c3cc(F)cc(c23)N[C@@H]1c1ccc(F)cc1 + C=CC(=O)N1CCN(c2nc(OCC3CCCN3C)nc3c2CCN(c2cccc4cccc(C)c24)C3)CC1CC#N | > 0.1 | > 0.1 | > 0.1 | > 0.1 | < 0.000316 | 97 | 90.8 |  |  | 98.9 | 89.4 |  |  | 92.2 | 91 |  | 78.6 | 85.4 | 52.6 | 53.6 | viability, T/C [31]: 100%; viability, T/C [32]: 100%; viability, T/C [33]: 98.1%; viability, T/C [34]: 105%; viability, T/C [35]: 94.2%; viability, T/C [36]: 94.5%; viability, T/C [37]: 104%; viability, T/C [38]: 91.9%; viability, T/C [39]: 94.1%; viability, T/C [40]: 89.9%; viability, T/C [41]: 95.1%; viability, T/C [42]: 88.4%; viability, T/C [43]: 83.8%; viability, T/C [44]: 78.6%; viability, T/C [45]: 88.3%; viability, T/C [46]: 91.7%; viability, T/C [47]: 50.4%; viability, T/C [48]: 43.3%; viability, T/C [49]: 53.2%; viability, T/C [50]: 54.5%
